From ChEMBL document CHEMBL3991947, “D-serine transporter inhibitors as pharmaceutical compositions for the treatment of central nervous system disorders” (2014)
The source made the active and inactive calls.

What was measured:
[1] = biological target: T1, Glutamate NMDA receptor (Rattus norvegicus) (UniProt P35439+Q00959+Q00960+Q00961+Q62645+Q8VHN2+Q9R1M7); experiment: Potentiation of NMDA receptor mediated excitatory post-synaptic currents in the CA1 region of rat hippocampal slices upto 1 hr by whole-cell patch-clamp assay
[2] = biological target: T2, Amino acid transporter (Rattus norvegicus) (UniProt Q9Z1J7); experiment: Inhibition of ASCT2 mediated [3H]-D-serine uptake in rat hippocampal astrocytes at 1 mM after 5 mins by beta counting analysis; assay type: cell-based
T2 sequence (whole entry): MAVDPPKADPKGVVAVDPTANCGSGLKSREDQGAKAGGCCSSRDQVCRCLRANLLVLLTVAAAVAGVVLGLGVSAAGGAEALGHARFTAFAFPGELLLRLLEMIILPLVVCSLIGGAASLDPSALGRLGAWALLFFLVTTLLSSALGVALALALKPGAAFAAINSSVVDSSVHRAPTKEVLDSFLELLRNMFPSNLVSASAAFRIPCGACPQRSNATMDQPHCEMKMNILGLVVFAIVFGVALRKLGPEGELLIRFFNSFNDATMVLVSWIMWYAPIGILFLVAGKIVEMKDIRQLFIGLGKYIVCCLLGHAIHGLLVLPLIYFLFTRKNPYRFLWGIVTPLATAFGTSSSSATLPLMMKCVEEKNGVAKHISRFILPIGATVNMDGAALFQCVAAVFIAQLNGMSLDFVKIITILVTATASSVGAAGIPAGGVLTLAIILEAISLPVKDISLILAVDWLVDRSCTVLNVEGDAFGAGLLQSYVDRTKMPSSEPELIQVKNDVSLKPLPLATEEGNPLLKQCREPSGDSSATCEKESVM

Mus musculus [3] = experiment: Reduction in amphetamine-induced hyperactivity in C57B/6 mouse model of schizophrenia at 1 mg/kg administered at 30 mins after habituation in open field apparatus followed by amphetamine injection measured for 1 hr post dose; assay type: functional, organism-based
Rattus norvegicus [4] = species on record: Rattus norvegicus; experiment: Inhibition of D-serine transporter in Sprague-Dawley rat visual cortex assessed as LTP threshold after 15 mins
Rattus norvegicus [5] = species on record: Rattus norvegicus; experiment: Inhibition of D-serine transporter in rat hippocampal slices assessed as increase in LTP at 100 uM
Rattus norvegicus [6] = experiment: Effect on absolute startle response in rat model of schizophrenia at 15 mg/kg; assay type: ADME, organism-based; details: in vivo
Rattus norvegicus [7] = experiment: Antipsychotic activity in rat model of schizophrenia assessed as […] in prepulse inhibition at 15 mg/kg; assay type: functional, organism-based
[8] = biological target: T1, Glutamate NMDA receptor (Rattus norvegicus); experiment: Potentiation of NMDA receptor mediated excitatory post-synaptic currents in the CA1 region of rat hippocampal slices after 1 hr by electrophysiological assay
[9] = biological target: T1, Glutamate NMDA receptor (Rattus norvegicus); experiment: Activation of NMDA receptor in rat visual cortex assessed as increase in theta burst stimulation of LTP after 15 mins followed by LTP induction in presence of DAAO by electrophysiological assay
[10] = biological target: T1, Glutamate NMDA receptor (Rattus norvegicus); experiment: Activation of NMDA receptor in rat visual cortex assessed as increase in theta burst stimulation of LTP after 15 mins followed by LTP induction by electrophysiological assay
Mus musculus [11] = experiment: Reduction in amphetamine-induced hyperactivity in systemically dosed C57B/6 mouse model of schizophrenia administered at 30 mins after habituation in open field apparatus followed by amphetamine injection measured for 1 hr post dose; assay type: functional, organism-based
Mus musculus [12] = experiment: Reduction in amphetamine-induced hyperactivity in C57B/6 mouse model of schizophrenia at 0.3 mg/kg, ip administered at 30 mins after habituation in open field apparatus followed by amphetamine injection measured for 1 hr post dose; assay type: functional, organism-based
Rattus norvegicus [13] = experiment: Effect on absolute startle response in rat model of schizophrenia at 600 mg/kg; assay type: ADME, organism-based; details: in vivo
Rattus norvegicus [14] = experiment: Antipsychotic activity in rat model of schizophrenia assessed as […] in prepulse inhibition at 600 mg/kg; assay type: functional, organism-based
[15] = biological target: T2, Amino acid transporter (Rattus norvegicus); experiment: Inhibition of ASCT2 in rat hippocampal astrocytes assessed as reduction in [3H]-D-serine uptake in presence of L-glutamine after 5 mins by beta counting analysis; assay type: cell-based
[16] = biological target: T2, Amino acid transporter (Rattus norvegicus); experiment: Inhibition of ASCT2 in rat hippocampal astrocytes assessed as reduction in [3H]-D-serine uptake in presence of L-t-40HPro after 5 mins by beta counting analysis; assay type: cell-based

Compound	inhibition [2] [%]	other results
O=C(O)[C@@H]1C[C@@H](Cc2ccc(Cl)cc2Cl)CN1		Activity (Mus musculus [3]): Active
N[C@H](C(=O)O)C1CC1	> 25	Activity (Rattus norvegicus [4]): 1 µM
N[C@@H](CCC(=O)OCc1ccccc1)C(=O)O		Activity [1]: inactive
C[C@@H](O)[C@H](N)C(=O)O	> 25	
O=C(O)C1Cc2c([nH]c3ccccc23)CN1 (stereo not drawn)	> 25	
O=C(O)[C@@H]1C[C@@H](O)CN1	> 25	Activity (Rattus norvegicus [4]): 3 µM; inhibition [15]: Active; Activity [1]: inactive
CC(C)(C)OC(=O)N1C[C@H](C/C=C/c2ccccc2)C[C@H]1C(=O)O	> 25	
NC(=O)C[C@H](N)C(=O)O	> 25	Activity (Rattus norvegicus [4]): 3 µM; Activity [1]: inactive
O=C(Nc1ccc2ccccc2c1)[C@@H]1CCCN1	> 25	
O=C(O)C1C[C@@H](Cc2cccc(C(F)(F)F)c2)CN1 (single isomer, unassigned)	> 25	
NC1(C(=O)O)CC1	> 25	
N[C@H]1CCOC1=O	> 25	
O=C(O)[C@@H]1CCN1	> 25	
O=C(O)[C@@H]1C[C@@H](F)CN1	> 25	
O=C(/C=C/c1c(C(=O)O)[nH]c2cc(Cl)cc(Cl)c12)Nc1ccccc1	> 25	
O=C(O)[C@@H]1C[C@H](Cc2cccc(Cl)c2)CN1	> 25	
NC(=O)CC[C@H](N)C(=O)O	> 25	inhibition [16]: Active; Activity [1]: inactive
NC(C(=O)O)C1CC2C=CC1C2 (stereo not drawn)	> 25	
O=C(O)[C@@H]1C=CCN1	> 25	
NC(C(=O)O)c1ccc2c(c1)OCO2 (stereo not drawn)	> 25	
CNC(C(=O)O)c1ccc(OC)cc1 (stereo not drawn)	> 25	
O=C(O)[C@@H]1CCCN1	> 25	Activity [1]: inactive
N[C@@H](CC1CCCC1)C(=O)O	> 25	
O=C(O)[C@@H]1C[C@@H](Cc2ccc(C(F)(F)F)cc2)CN1	> 25	
O=C(O)C1C[C@@H](Cc2ccc(I)cc2)CN1 (single isomer, unassigned)	> 25	

Continued, in another order:

inhibition [2] [%]	Compound	other results
> 25	N[C@@H](CSc1ccccc1)C(=O)O	Activity [1]: inactive
> 25	N[C@@H](CO)C(=O)O	Activity [1]: inactive
> 25	NC(C(=O)O)c1ccccc1F (stereo not drawn)	Activity (Rattus norvegicus [4]): > 300 µM; Activity [1]: inactive
> 25	N[C@@H](CCC(=O)Nc1ccc([N+](=O)[O-])cc1)C(=O)O	Activity (Rattus norvegicus [4]): 100 µM; Activity [1]: inactive; inhibition (Rattus norvegicus [5]): Active
> 25	N[C@@H](CSCc1ccccc1)C(=O)O	Activity [1]: inactive
> 25	N[C@H](C(=O)O)c1ccc(O)cc1 [OXFENICINE]	Activity (Rattus norvegicus [6]): Non-Toxic; Activity (Rattus norvegicus [7]): Active; Activity (Rattus norvegicus [4]): 10 µM; Activity [8]: inactive; Activity [1]: Dose-dependent effect; Activity [9]: inactive; Activity [10]: Dose-dependent effect
> 25	N[C@H](C(=O)O)c1ccc(F)cc1	Activity (Rattus norvegicus [4]): 0.3 µM; Activity (Mus musculus [11]): Dose-dependent effect; Activity [1]: inactive; Activity (Mus musculus [12]): Active
> 25	N[C@H](C(=O)O)c1ccccc1	Activity (Rattus norvegicus [4]): 10 µM; Activity [1]: inactive
> 25	N[C@H](CO)C(=O)O [(D)-SERINE]	Activity (Rattus norvegicus [4]): 3 µM; Activity (Rattus norvegicus [13]): Non-Toxic; Activity (Rattus norvegicus [14]): inactive; Activity [1]: inactive
> 25	Nc1ccccc1C(=O)C[C@@H](N)C(=O)O	
> 25	N[C@@H](CCS)C(=O)O	
> 25	Cc1cc(C(N)C(=O)O)ccc1F (stereo not drawn)	
> 25	N[C@H](C(=O)O)c1cccc(O)c1	
> 25	CCC[C@H](N)C(=O)O	
> 25	CC[C@H](N)C(=O)O	
> 25	N[C@@H](Cc1c[nH]c2ccc(F)cc12)C(=O)O	
> 25	NC(C(=O)O)c1cc(O)ccc1Cl (stereo not drawn)	
> 25	NC(C(=O)O)c1ccc(F)c(F)c1 (stereo not drawn)	
> 25	N[C@@H](CCC(=O)Nc1ccc2ccccc2c1)C(=O)O	
> 25	N[C@@H](Cc1c[nH]c2ccccc12)C(=O)O	
> 25	O=C(O)[C@@H]1C[C@@H](Cc2ccc3ccccc3c2)CN1	
> 25	N[C@@H](CS)C(=O)O	
> 25	C#CCC[C@H](N)C(=O)O	
> 25	N[C@H](C(=O)O)c1ccsc1	
